Experimental data as given in US10611778B2, “Fused bicyclic inhibitors of menin-MLL interaction” (Janssen Pharmaceutica NV, priority 2016, dated 2020).

tested on: MV-4-11; assay: Proliferation assay (spheroid assay) MV-4-11; format: cell-based, human; conditions: Homo sapiens, MV4-11, MV-4-11; averaged values over all measurements; read-out: Spheroid assay MV-4-11 (IC50)
Description: The anti-proliferative effect of menin/MLL protein/protein interaction inhibitor test compounds was assessed in human leukemia cell lines. The cell lines MV-4-11 and MOLM14 harbor MLL translocations and express the MLL fusion proteins MLL-AF4 and MLL-AF9, respectively, as well as the wildtype protein from the second allele. […] K562 and KG1 were used as a control cell lines containing two MLL wildtype alleles in order to exclude compounds that display general cytotoxic effects.
MV-4-11 and MOLM14 were cultured in RPMI-1640 (Sigma Aldrich) supplemented with 10% fetal bovine serum (HyClone), 2 mM L-glutamine (Sigma Aldrich) and 50 μg/ml gentamycin (Gibco). K562 were propagated in RPMI-1640 (Sigma Aldrich) supplemented with 20% fetal bovine serum (HyClone), 2 mM L-glutamine (Sigma Aldrich) and 50 μg/ml gentamycin (Gibco). KG1 were cultured in Iscove's MDM (Gibco) supplemented with 20% fetal bovine serum (HyClone), 2 mM L-glutamine (Sigma Aldrich) and 50 μg/ml gentamycin (Gibco).
In order to assess the anti-proliferative effects, 1,500 MV-4-11, 300 MOLM14, 750 K562 or 1,300 KG1 cells were seeded in 200 μl media per well in 96-well round bottom, ultra-low attachment plates (Costar, catalogue number 7007). Cell seeding numbers were chosen based on growth curves to ensure linear growth throughout the experiment. Test compounds were added at different concentrations and the DMSO content was normalized to 0.3%. Cells were incubated for 8 d at 37° C. and 5% CO2. Spheroid like growth was monitored in real-time by live-cell imaging (IncuCyteZOOM, Essenbio, 4× objective) acquiring one image every four hours for 8 d. Confluence (%) as a measure of spheroid size was determined using an integrated analysis tool.
In order to determine the cumulative effect of the test compounds over time, the area under the curve (AUC) in a plot of confluence against time was calculated. Confluence at the beginning of the experiment (t=0) was used as baseline for the AUC calculation.
Absolute IC50 values were calculated according to the following procedure: % Control=(AUC sample/AUC control)*100
AUC control=mean AUC of control values (cells without compound/DMSO as vehicle control)
A non-linear curve fit was applied using the least squares (ordinary) fit method to the plot of % control versus compound concentration. Based on this, the absolute IC50 value (half maximal inhibitory concentration of the test compound causing an anti-proliferative effect of 50% relative to the vehicle control) was calculated.

Row | Compound | IC50 [nM]
1 | O=C(C1CCOCC1)N1CCC(CN2CC[C@@H]3CN(c4ncnc5sc(CC(F)(F)F)cc45)C[C@@H]3C2)CC1 (single isomer, unassigned) [Compound 91] | 1200
2 | FC(F)(F)Cc1cc2c(N3C[C@H]4CCN(Cc5cnsc5)C[C@H]4C3)ncnc2s1 (single isomer, unassigned) [Compound 52] | 860

target: T1, Menin/MLL (terbium chelate-labeled menin, FITC-MBM1 peptide) (Homo sapiens, UniProt O00255, T541A); assay: Menin/MLL homogenous time-resolved fluorescence (HTRF) assay; format: binding; conditions: averaged values over all measurements; read-out: Menin HTRF assay (IC50)
T1 construct: Menin (a.a. 1-610-6×his tag) was labeled with terbium cryptate as follows
T1 sequence (O00255 with tags, fused parts or gaps T541A): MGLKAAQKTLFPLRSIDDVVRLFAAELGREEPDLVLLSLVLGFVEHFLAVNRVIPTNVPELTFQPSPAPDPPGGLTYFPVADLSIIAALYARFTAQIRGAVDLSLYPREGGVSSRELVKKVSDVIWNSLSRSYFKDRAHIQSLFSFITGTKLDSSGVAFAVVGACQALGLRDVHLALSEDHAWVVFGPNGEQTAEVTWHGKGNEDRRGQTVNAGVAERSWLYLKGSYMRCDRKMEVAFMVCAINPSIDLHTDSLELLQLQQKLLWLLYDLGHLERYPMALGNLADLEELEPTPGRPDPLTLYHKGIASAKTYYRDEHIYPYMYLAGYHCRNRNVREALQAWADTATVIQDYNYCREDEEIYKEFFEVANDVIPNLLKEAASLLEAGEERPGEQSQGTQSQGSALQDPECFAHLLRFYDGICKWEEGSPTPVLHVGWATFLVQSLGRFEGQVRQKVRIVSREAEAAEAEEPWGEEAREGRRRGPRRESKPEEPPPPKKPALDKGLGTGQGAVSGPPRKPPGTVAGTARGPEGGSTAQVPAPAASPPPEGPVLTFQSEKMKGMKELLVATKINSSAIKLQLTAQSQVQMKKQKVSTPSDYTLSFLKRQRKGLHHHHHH
Description: 3) Menin/MLL Homogenous Time-Resolved Fluorescence (HTRF) Assay
To an untreated, white 384-well microtiter plate was added 40 nL 200× test compound in DMSO and 4 μL 2× terbium chelate-labeled menin (vide infra for preparation) in assay buffer (40 mM Tris-HCl, pH 7.5, 50 mM NaCl, 1 mM DTT and 0.05% Pluronic F-127). After incubation of test compound and terbium chelate-labeled menin for 5 min at ambient temperature, 4 μL 2×FITC-MBM1 peptide (FITC-β-alanine-SARWRFPARPGT-NH2) in assay buffer was added, the microtiter plate centrifuged at 1000 rpm for 1 min and the assay mixtures incubated for 15 min at ambient temperature. The relative amount of menin⋅FITC-MBM1 complex present in an assay mixture is determined by measuring the homogenous time-resolved fluorescence (HTRF) of the terbium/FITC donor/acceptor fluorophore pair using a BMG Pherastar plate reader (ex. 337 nm/terbium em. 490 nm/FITC em. 520 nm) at ambient temperature. The degree of fluorescence resonance energy transfer (the HTRF value) is expressed as the ratio of the fluorescence emission intensities of the FITC and terbium fluorophores (F^em 520 nm/F^em 490 nm). The final concentrations of reagents in the binding assay are 100 pM terbium chelate-labeled menin, 75 nM FITC-MBM1 peptide and 0.5% DMSO in assay buffer. Dose-response titrations of test compounds are conducted using an 11 point, three-fold serial dilution scheme, starting at 31 μM.
Compound potencies were determined by first calculating % inhibition at each compound concentration according to equation 1: % inhibition=((HC−LC)−(HTRF^compound−LC))/(HC−LC))*100 (Eqn 1)
Where LC and HC are the HTRF values of the assay in the presence or absence of a saturating concentration of a compound that competes with FITC-MBM1 for binding to menin, and HTRF^compound is the measured HTRF value in the presence of the test compound. HC and LC HTRF values represent an average of at least 16 replicates per plate.
Where Bottom and Top are the lower and upper asymptotes of the dose-response curve, respectively, IC50 is the concentration of compound that yields 50% inhibition of signal and h is the Hill coefficient.
Preparation of Terbium cryptate labeling of Menin: Menin (a.a. 1-610-6×his tag) was labeled with terbium cryptate as follows. 2 mg of Menin was buffer exchanged into 1× phosphate buffered saline. 16 uM Menin was incubated with 4-fold molar excess NHS-terbium cryptate (Cisbio Bioassays, Bedford, Mass.) for 2 hours at room temperature. The labeled protein was purified away from free label by running the reaction over a Superdex 200 Increase 10/300 GL column at 0.75 ml/min. Peak fractions were collected, aliquoted and frozen at −80° C.

Row | Compound | IC50 [nM]
3 | O=C(C1CCOCC1)N1CCC(CN2CC[C@@H]3CN(c4ncnc5sc(CC(F)(F)F)cc45)C[C@@H]3C2)CC1 (single isomer, unassigned) [Compound 91] | 30
4 | CC(C)[C@H](c1cnn(C)c1)N1CC[C@H]2CN(c3ncnc4sc(CC(F)(F)F)cc34)C[C@H]2C1 (single isomer, unassigned) [Compound 78A] | 520
5 | FC(F)(F)Cc1cc2c(N3C[C@H]4CCN(Cc5cnsc5)C[C@H]4C3)ncnc2s1 (single isomer, unassigned) [Compound 52] | 41
6 | FC(F)(F)Cc1cc2c(N3C[C@H]4CCN(Cc5ccncn5)C[C@H]4C3)ncnc2s1 (single isomer, unassigned) [Compound 50] | 281
7 | Cn1cc(CN2C(=O)C[C@@H]3CCN(c4ncnc5sc(CC(F)(F)F)cc45)C[C@@H]32)cn1 (single isomer, unassigned) [Compound 35B] | > 25000
8 | CC(C)(C)OC(=O)N1CCC(O)(CN2CC[C@@H]3CN(c4ncnc5sc(CC(F)(F)F)cc45)C[C@@H]3C2)CC1 (single isomer, unassigned) [Compound 109] | 714
9 | CC(C)[C@@H](c1cnn(C)c1)N1CC[C@H]2CN(c3ncnc4sc(CC(F)(F)F)cc34)C[C@H]2C1 (single isomer, unassigned) [Compound 78B] | 1320
10 | FC(F)(F)Cc1cc2c(N3C[C@H]4CCN(Cc5cnccn5)C[C@H]4C3)ncnc2s1 (single isomer, unassigned) [Compound 53] | 252
11 | FC(F)(F)Cc1cc2c(N3C[C@H]4CN(Cc5cccnc5)CC[C@H]4C3)ncnc2s1 (single isomer, unassigned) [Compound 72] | 991
12 | Cn1cc(CN2CC[C@@H]3CN(c4ncnc5sc(CC(F)(F)F)cc45)C[C@@H]32)cn1 [Compound 27C] | 4530
13 | Cn1cc(CN2CC[C@@H]3CN(c4ncnc5sc(CC(F)(F)F)cc45)C[C@@H]3C2)cn1 (single isomer, unassigned) [Compound 71A] | 985
14 | C[C@@H](c1cnn(C)c1)N1CC[C@@H]2CN(c3ncnc4sc(CC(F)(F)F)cc34)C[C@@H]2C1 (single isomer, unassigned) [Compound 79B] | 964
15 | O=C([C@@H]1CCCN1)N1CC[C@H]2CN(c3ncnc4sc(CC(F)(F)F)cc34)C[C@H]2C1 [Compound 83] | 985
16 | FC(F)(F)Cc1cc2c(N3C[C@H]4CCN(CCc5ccccc5)C[C@H]4C3)ncnc2s1 (single isomer, unassigned) [Compound 48] | 446
17 | C[C@H](c1cnn(C)c1)N1CC[C@@H]2CN(c3ncnc4sc(CC(F)(F)F)cc34)C[C@@H]2C1 (single isomer, unassigned) [Compound 79A] | 955
18 | COc1ncc(CN2CC[C@@H]3CN(c4ncnc5sc(CC(F)(F)F)cc45)C[C@@H]3C2)cn1 (single isomer, unassigned) [Compound 88] | 267
19 | O=c1cc(CN2CC[C@@H]3CN(c4ncnc5sc(CC(F)(F)F)cc45)C[C@@H]3C2)cc[nH]1 (single isomer, unassigned) [Compound 66] | 492
20 | CC(C)[C@H](c1cnn(C)c1)N1CC[C@@H]2CN(c3ncnc4sc(CC(F)(F)F)cc34)C[C@@H]2C1 (single isomer, unassigned) [Compound 77A] | 201
21 | O=C([C@@H]1CCCN1)N1CC[C@@H]2CN(c3ncnc4sc(CC(F)(F)F)cc34)C[C@@H]2C1 [Compound 80] | 933
22 | CC(C)[C@@H](c1cnn(C)c1)N1CC[C@@H]2CN(c3ncnc4sc(CC(F)(F)F)cc34)C[C@@H]2C1 (single isomer, unassigned) [Compound 77B] | 1620
23 | FC(F)CN1CC[C@@H]2CN(c3ncnc4sc(CC(F)(F)F)cc34)C[C@@H]2C1 (single isomer, unassigned) [Compound 74] | 2220
24 | Cn1cc(CN2CC[C@H]3CN(c4ncnc5sc(CC(F)(F)F)cc45)C[C@H]32)cn1 [Compound 27D] | ~6910
25 | CC(C)CN1CCC2CN(c3ncnc4sc(CC(F)(F)F)cc34)CCC21 (centres unmarked) [Compound 25] | 546
26 | FC(F)(F)Cc1cc2c(N3C[C@H]4CCN(Cc5cncnc5)C[C@H]4C3)ncnc2s1 (single isomer, unassigned) [Compound 104] | 375
27 | FC(F)(F)Cc1cc2c(N3C[C@H]4CCN(CC(F)(F)F)C[C@H]4C3)ncnc2s1 (single isomer, unassigned) [Compound 73] | 2460
28 | Cc1ncc(CN2CC[C@@H]3CN(c4ncnc5sc(CC(F)(F)F)cc45)C[C@@H]3C2)cn1 (single isomer, unassigned) [Compound 90] | 317
29 | Cn1cc(CN2CC[C@@H]3CN(c4ncnc5sc(CC(F)(F)F)cc45)C[C@@H]3C2)cn1 (single isomer, unassigned) [Compound 87] | 20
30 | Cn1cc(CN2C(=O)C[C@H]3CCN(c4ncnc5sc(CC(F)(F)F)cc45)C[C@H]32)cn1 (single isomer, unassigned) [Compound 35A] | 8330
31 | FC(F)(F)Cc1cc2c(N3C[C@H]4CCN(CC5(F)CCOCC5)C[C@H]4C3)ncnc2s1 (single isomer, unassigned) [Compound 98] | 504

same assay, conditions: individual measurements (not averaged); read-out: (3) Menin HTRF assay (IC50 (nM))

Row | Compound | IC50 [nM]
32 | OCCn1cc(CN2CCC3CN(c4ncnc5sc(CC(F)(F)F)cc45)CCC32)cn1 (centres unmarked) [Compound 24] | 244
